Here are results for nine molecules from US4060634A (Boehringer Mannheim G.m.b.H., priority 1973, dated 1977).

Molecules are shown by their SMILES.

A short description of data set [1]: Particle surface area (BET method). The conditions noted are these: precipitated or ground glibenclamide product. It counts as physicochemical.
Data set [2] can be described thus: Solubility of glibenclamide in water. It counts as physicochemical.
The subject of the next data set is blood sugar. The settings on record: cited from earlier work.

`COc1ccc(Cl)cc1C(=O)NCCc1ccc(S(=O)(=O)NC(=O)NC2CCCCC2)cc1` [Example 2, glibenclamide] displayed a particle surface area in data set [1] of 9.8 m^2 /g.

In the case of `COc1ccc(Cl)cc1C(=O)NCCc1ccc(S(=O)(=O)NC(=O)NC2CCCCC2)cc1` [Example 5, glibenclamide], in data set [1], the particle surface area is on record as 10.3 m^2 /g.

Regarding `COc1ccc(Cl)cc1C(=O)NCCc1ccc(S(=O)(=O)NC(=O)NC2CCCCC2)cc1` [Example 7, glibenclamide], the particle surface area in data set [1] is 7.8 m^2 /g.

Molecule `COc1ccc(Cl)cc1C(=O)NCCc1ccc(S(=O)(=O)NC(=O)NC2CCCCC2)cc1` [Example 6, glibenclamide] registered a particle surface area in data set [1] of 5.2 m^2 /g.

In turn, `COc1ccc(Cl)cc1C(=O)NCCc1ccc(S(=O)(=O)NC(=O)NC2CCCCC2)cc1` [Example 8, glibenclamide] had a particle surface area in data set [1] of 5.8 m^2 /g.

`COc1ccc(Cl)cc1C(=O)NCCc1ccc(S(=O)(=O)NC(=O)NC2CCCCC2)cc1` [Example 4, glibenclamide] showed a particle surface area in data set [1] of 6.8 m^2 /g.

Molecule `COc1ccc(Cl)cc1C(=O)NCCc1ccc(S(=O)(=O)NC(=O)NC2CCCCC2)cc1` [Example 1, glibenclamide] showed a particle surface area in data set [1] of 5.79 m^2 /g.

With `COc1ccc(Cl)cc1C(=O)NCCc1ccc(S(=O)(=O)NC(=O)NC2CCCCC2)cc1` [Example 3, glibenclamide], the particle surface area in data set [1] is given as 6.0 m^2 /g.

For the molecule `COc1ccc(Cl)cc1C(=O)NCCc1ccc(S(=O)(=O)NC(=O)NC2CCCCC2)cc1` [glibenclamide, N-4-[2-(5-chloro-2-methoxybenzamido)-ethyl]-phenyl-sulfonyl-N'-cyclohexylurea], the “solubility in water, pH of minimum” value in data set [2] is given as “reaches a minimum at a pH of 4”. The “blood sugar lowering action” value in the data set on blood sugar (among sulfonylurea derivatives) is recorded as “greatest hitherto known blood sugar lowering action”. Besides, the side effects result with blood sugar (in vivo) is “lowest degree of side effects”.
